From PMC6900016, “Synthesis of Indomorphan Pseudo‐Natural Product Inhibitors of Glucose Transporters GLUT‐1 and ‐3” (Angewandte Chemie (International Ed. in English), 2019) come the findings set out here.

The assay deals with HCT116. Put plainly: cells. Also noted: 2-deoxyglucose uptake inhibition, semi-automated resazurin/diaphorase fluorescence read-out of 2DG6P. Conditions: Homo sapiens, HCT-116, 0.5 h; 2DG uptake. The procedure:
Resazurin-based 2DG uptake assay (semi-automated high throughput) All buffers, reagents and steps were identical with those described for the manual screening Washing and [compound left out] addition steps were done using an automated cell washer or a multidrop device, respectively. Screening was performed in a 384-well plates. 15,000 HCT116 cells/well seeded into 384-well black-walled, clear bottomed plates (CellBIND, Corning) and incubated overnight. Compounds were added at 30 µM (final concentration for screening or serial dilutions staring from 30 µM for IC50 determinations) from DMSO stocks using the acoustic nanoliter dispenser ECHO 520. Fluorescence intensity was read from the bottom with a SpectraMax Paradigm Multi-Mode Microplate Reader (Molecular devices) using SUPPORTING INFORMATION 259 control (which was set to 100 %) and cells without 2DG (set to 0 %) using Graph Pad Prism 5 or 6 software and IC50 values were determined using a four-parameter fit. The observed difference in the obtained IC50 values for Glupin in the automated screening vs. manually performed assay is most likely attributed to the minituarization that is required for high-troughput screening and usually requires different plate format (384 vs. 96-well plates) and different cell number. In this case, the automated assay was performed in 384-well plates (vs. 96-well plates for the manual assay) with 15,000 cells per well (vs. 40,000 cells per well in the 96-well plates). For kinetic measurements, 15,000 cells were seeded into black CellBIND 384-well plates (Corning) and allowed to attach overnight. Then, the plates were washed 3X with KRB buffer containing 0.1%BSA and treated with different concentrations of 2DG (0-60mM) and Glupin (0-1µM) for 30s to 30min. The uptake was determined using the resazurin/diaphorase system as described above. 2DG uptake was stopped by aspirating the 2DG solution followed by quick wash with ice-cold KRB buffer (0.1 % BSA). Km and Vmax were determined by fitting the data according to Michaelis-Menten using non-linear fitting. The glucose uptake assay monitored the inhibition of 2‐deoxyglucose (2DG) uptake as described by Yamamoto et al.25 Briefly, 2DG uptake is determined by quantification of the 2DG‐6‐phosphate (2DG6P) that accumulates inside the cells by using the diaphorase‐resazurin/‐resorufin system (see Figure S7 a).
For orientation: IC50 means the point on the concentration scale where inhibition reaches its midpoint. Take `CCOC(=O)Cn1c2c(c3ccccc31)CC1CC2C(OC)CN1C(=O)c1cccnc1S(C)(=O)=O` (racemic) [5ag, (±)-Ethyl 2-(5-methoxy-3-(2-(methylsulfonyl)nicotinoyl)-1,2,3,4,5,6-hexahydro-7H-2,6-methanoazocino[5,4-b]indol-7-yl)acetate]: the IC50 worked out at 1700 ± 700 nM.
In the case of `CCCSc1ncccc1C(=O)N1CC(OC)C2CC1Cc1c2n(CC(=O)OCC)c2ccccc12` (racemic) [5ai, (±)-Ethyl 2-(5-methoxy-3-(2-(propylthio)nicotinoyl)-1,2,3,4,5,6-hexahydro-7H-2,6-methanoazocino[5,4-b]indol-7-yl)acetate] it was 190 ± 120 nM; in that of `CCOC(=O)Cn1c2c(c3ccccc31)CC1CC2C(OC)CN1C(=O)c1cccs1` (racemic) [5aq, (±)-Ethyl 2-(5-methoxy-3-(thiophene-2-carbonyl)-1,2,3,4,5,6-hexahydro-7H-2,6-methanoazocino[5,4-b]indol-7-yl)acetate], 3000 ± 400 nM; in that of `CCOC(=O)CCn1c2c(c3ccccc31)CC1CC2C(OC)CN1C(=O)c1cccnc1SC` (racemic) [5q, (±)-ethyl 3-(5-methoxy-3-(2-(methylthio)nicotinoyl)-3,4,5,6-tetrahydro-1H-2,6-methanoazocino[5,4-b]indol-7(2H)-yl)propanoate], 8400 ± 3600 nM.
In the case of `C=CCOC1CN(C(=O)c2cccnc2SC)C2Cc3c(n(CC(=O)OCC)c4ccccc34)C1C2` (racemic) [5z, (±)-Ethyl 2-(5-(allyloxy)-3-(2-(methylthio)nicotinoyl)-1,2,3,4,5,6-hexahydro-7H-2,6-methanoazocino[5,4-b]indol-7-yl)acetate] it was 120 ± 20 nM.
In the case of `CCOC(=O)Cn1c2c(c3ccccc31)CC1CC2C(O)CN1C(=O)c1cccnc1SC` (racemic) [5c, (±)-Ethyl 2-(5-hydroxy-3-(2-(methylthio)nicotinoyl)-1,2,3,4,5,6-hexahydro-7H-2,6-methanoazocino[5,4-b]indol-7-yl)acetate] it was 130 ± 50 nM; in that of `CCOC(=O)Cn1c2c(c3ccccc31)CC1CC2C(OC)CN1C(=O)c1cc(C(F)(F)F)cnc1SC` (racemic) [5y, (±)-Ethyl 2-(5-methoxy-3-(2-(methylthio)-5-(trifluoromethyl)nicotinoyl)-1,2,3,4,5,6-hexahydro-7H-2,6-methanoazocino[5,4-b]indol-7-yl)acetate], 14000 ± 4000 nM.
For the compound `CCOC(=O)Cn1c2c(c3ccccc31)CC1CC2C(OC)CN1C(=O)c1ccncc1` (racemic) [5ao, (±)-Ethyl 2-(3-isonicotinoyl-5-methoxy-1,2,3,4,5,6-hexahydro-7H-2,6-methanoazocino[5,4-b]indol-7-yl)acetate], the IC50 amounted to 13000 ± 3000 nM.
In the case of `COC1CN(C(=O)c2cccnc2SC)C2Cc3c(n(Cc4ccco4)c4ccccc34)C1C2` (racemic) [5o, (±)-(7-(furan-2-ylmethyl)-5-methoxy-5,6-dihydro-1H-2,6-methanoazocino[5,4-b]indol-3(2H,4H,7H)-yl)(2-(methylthio)pyridin-3-yl)methanone] it was 6700 ± 2400 nM; in that of `CCOC(=O)Cn1c2c(c3ccccc31)CC1CC2C(OC)CN1C(=O)c1cccnc1OCC` (racemic) [5ak, (±)-Ethyl 2-(3-(2-ethoxynicotinoyl)-5-methoxy-1,2,3,4,5,6-hexahydro-7H-2,6-methanoazocino[5,4-b]indol-7-yl)acetate], 220 ± 70 nM.
The same measure for `CCOC(=O)Cn1c2c(c3ccccc31)CC1CC2C(OC)CN1C(=O)c1cccnc1C(F)(F)F` (racemic) [5w, (±)-Ethyl 2-(5-methoxy-3-(2-(trifluoromethyl)nicotinoyl)-1,2,3,4,5,6-hexahydro-7H-2,6-methanoazocino[5,4-b]indol-7-yl)acetate]: 120 ± 30 nM; for `COC1CN(C(=O)c2cccnc2SC)C2Cc3c(n(CC(=O)O)c4ccccc34)C1C2` (racemic) [5n, (±)-2-(5-methoxy-3-(2-(methylthio)nicotinoyl)-1,2,3,4,5,6-hexahydro-7H-2,6-methanoazocino[5,4-b]indol-7-yl)acetic acid]: 10000 ± 4000 nM.
The same measure for `CCOC(=O)Cn1c2c(c3ccccc31)CC1CC2C(OC)CN1C(=O)c1cccnc1Br` (racemic) [5aj, (±)-Ethyl 2-(3-(2-bromonicotinoyl)-5-methoxy-1,2,3,4,5,6-hexahydro-7H-2,6-methanoazocino[5,4-b]indol-7-yl)acetate]: 180 ± 60 nM; for `CCOC(=O)Cn1c2c(c3ccccc31)CC1CC2C(OC)CN1C(=O)c1cccnc1Sc1ccccc1` (racemic) [5ah, (±)-Ethyl 2-(5-methoxy-3-(2-(phenylthio)nicotinoyl)-1,2,3,4,5,6-hexahydro-7H-2,6-methanoazocino[5,4-b]indol-7-yl)acetate]: 140 ± 70 nM; for `CNC(=O)Cn1c2c(c3ccccc31)CC1CC2C(OC)CN1C(=O)N1CCOCC1` (centres unmarked) [5ay]: above 30000 nM.
For `CCOC(=O)Cn1c2c(c3ccccc31)CC1CC2C(OC)CN1C(=O)c1cccnc1N1CCOCC1` (racemic) [5al, (±)-Ethyl 2-(5-methoxy-3-(2-morpholinonicotinoyl)-1,2,3,4,5,6-hexahydro-7H-2,6-methanoazocino[5,4-b]indol-7-yl)acetate], the IC50 was determined as 1400 ± 200 nM.
In the case of `CCOC(=O)Cn1c2c(c3cc(OC)ccc31)CC1CC2C(OC)CN1C(=O)c1cccnc1SC` (racemic) [5aa, (±)-Ethyl 2-(5,10-dimethoxy-3-(2-(methylthio)nicotinoyl)-1,2,3,4,5,6-hexahydro-7H-2,6-methanoazocino[5,4-b]indol-7-yl)acetate] it was 4220 ± 3460 nM; in that of `CCOC(=O)Cn1c2c(c3cc(Cl)ccc31)CC1CC2C(OC)CN1C(=O)c1cccnc1SC` (racemic) [5g, (±)-Ethyl 2-(10-chloro-5-methoxy-3-(2-(methylthio)nicotinoyl)-1,2,3,4,5,6-hexahydro-7H-2,6-methanoazocino[5,4-b]indol-7-yl)acetate], 1400 ± 200 nM; in that of `CNC(=O)Cn1c2c(c3ccccc31)CC1CC2C(OC)CN1C(=O)c1cnccn1` (centres unmarked) [5av], above 30000 nM.
The same measure for `CCOC(=O)Cn1c2c(c3ccccc31)CC1CC2C(OC)CN1C(=O)c1cccnc1F` (racemic) [5u, (±)-Ethyl 2-(3-(2-fluoronicotinoyl)-5-methoxy-1,2,3,4,5,6-hexahydro-7H-2,6-methanoazocino[5,4-b]indol-7-yl)acetate]: 540 ± 160 nM; for `COC1CN(C(=O)c2cccnc2SC)C2Cc3c(n(CC(=O)Oc4ccccc4)c4ccccc34)C1C2` (racemic) [5ae, (±)-phenyl 2-(5-methoxy-3-(2-(methylthio)nicotinoyl)-3,4,5,6-tetrahydro-1H-2,6-methanoazocino[5,4-b]indol-7(2H)-yl)acetate]: 220 ± 80 nM; for `CCOC(=O)Cn1c2c(c3ccccc31)CC1CC2C(OC)CN1C(=O)c1cccnc1` (racemic) [5t, (±)-Ethyl 2-(5-methoxy-3-nicotinoyl-3,4,5,6-tetrahydro-1H-2,6-methanoazocino[5,4-b]indol-7(2H)-yl)acetate]: 2300 ± 800 nM.
The same measure for `CCOC(=O)Cn1c2c(c3ccccc31)CC1CC2C(OC)CN1C(=O)c1ccco1` (centres unmarked) [5s]: 3400 ± 300 nM.
Regarding `CCOC(=O)Cn1c2c(c3cc(C(=O)OCC)ccc31)CC1CC2C(OC)CN1C(=O)c1cccnc1SC` (centres unmarked) [5i, Ethyl 7-(2-ethoxy-2-oxoethyl)-5-methoxy-3-(2-(methylthio)nicotinoyl)-2,3,4,5,6,7-hexahydro-1H-2,6-methanoazocino[5,4-b]indole-10-carboxylate], the IC50 is above 30000 nM.
In the case of `CCOC(=O)Cn1c2c(c3ccccc31)CC1CC2C(OC)CN1C(=O)c1cncnc1` (racemic) [5ap, (±)-Ethyl 2-(5-methoxy-3-(pyrimidine-5-carbonyl)-1,2,3,4,5,6-hexahydro-7H-2,6-methanoazocino[5,4-b]indol-7-yl)acetate] it was 14000 ± 5000 nM; in that of `CCOC(=O)Cn1c2c(c3ccccc31)CC1CC2C(OC)CN1C(=O)c1cccnc1OC` (racemic) [5v, (±)-Ethyl 2-(5-methoxy-3-(2-methoxynicotinoyl)-1,2,3,4,5,6-hexahydro-7H-2,6-methanoazocino[5,4-b]indol-7-yl)acetate], 230 ± 50 nM.
The same measure for `CCOC(=O)Cn1c2c(c3ccccc31)CC1CC2C(OC(C)=O)CN1C(=O)c1cccnc1SC` (racemic) [5b, (±)-Ethyl 2-(5-acetoxy-3-(2-(methylthio)nicotinoyl)-1,2,3,4,5,6-hexahydro-7H-2,6-methanoazocino[5,4-b]indol-7-yl)acetate]: 53 ± 23 nM; for `COC1CN(C(=O)c2cnccn2)C2Cc3c(n(CC(N)=O)c4ccccc34)C1C2` (centres unmarked) [5ax]: above 30000 nM; for `CCOC(=O)Cn1c2c(c3ccccc31)CC1CC2C(OC)CN1C(=O)c1ccc(C)o1` (racemic) [5at, (±)-Ethyl 2-(5-methoxy-3-(5-methylfuran-2-carbonyl)-1,2,3,4,5,6-hexahydro-7H-2,6-methanoazocino[5,4-b]indol-7-yl)acetate]: 8600 ± 4000 nM.
